Values of other authors as cited in patent publication US10391330B2, “Non-invasive systems and methods for in-situ photobiomodulation” (priority 2008, dated 2019).

Tests used:
[1] = tested on: T cells; details: combination with UVA radiation
[2] = clinical use

Row | duration of skin photosensitivity [2] | Compound | apoptosis of the treated T cells [1]
1 |  | COc1c2occc2cc2ccc(=O)oc12 [Compound 8-MOP, 8-methoxypsoralen] | causes apoptosis
2 | approximately 2 weeks | Oc1cccc(-c2c3nc(c(-c4cccc(O)c4)c4ccc([nH]4)c(-c4cccc(O)c4)c4nc(c(-c5cccc(O)c5)c5ccc2[nH]5)CC4)C=C3)c1 [Foscan, Tetra (m-hydroxyphenyl) chlorin] | 
